{"source": "paper PMC3401522", "about": "(ACS Chemical Biology, 2011)", "origin": "cited, not measured here", "system": "JIP-JNK interaction sites"}
{"smiles": "O=c1[nH]nc(Sc2ncc([N+](=O)[O-])s2)n1-c1ccc2c(c1)OCCO2", "note": "[BI-78D3]", "values": [{"measurement": "IC50", "result": 500, "unit": "nM"}]}
